# Results as given in patent US4624944A, “Human seminal alpha-inhibins” (The Regents of The University of California, priority 1985, dated 1986).
# Where no end group is shown, it is not given here.
# Columns and labels:
# [1] = tested on: LHRH-induced FSH secretion by mouse pituitary; assay: FSH-suppressing (inhibin) activity, in vitro mouse pituitary system; assay type: cell-based; conditions: for ED50 (FSH-suppressing activity) / times more active than alpha-IB-31 in suppressing FSH (follitropin) release: mouse pituitaries in vitro; for ED50 (FSH-suppressing activity): LHRH-induced FSH secretion, 95% confidence limits in parenthesis; for times more active than alpha-IB-31 in suppressing FSH (follitropin) release: text statement; for Relative Potency (FSH-suppressing activity): relative to alpha-IB-31 = 1.0
# Procedure: FIG. 6 is a graphical illustration of the effect of alpha-IB-31, alpha-IB-52, and alpha-IB-92 on LHRH-induced FSH secretion by mouse pituitary. Means ±SEM (n=5) are shown. On the graph solid circles represent alpha-IB-31; open circles represent alpha-IB-52; solid triangles represent alpha-IB-92.
# Disc electrophoresis in polyacrylamide slab gels was performed as described by Reisfield, et al. (1962). The gels were stained with Coomassie Blue (R250). NaDodSO4 gel electrophoresis was carried out as described by Laemmli (1970). The inhibin activity was assayed by the in vitro mouse pituitary system (Yamashiro, et al., 1984; Ramasharma, et al., 1981).
# FIG. 6 presents bioassay data for alpha-IB-31, alpha-IB-52 and alpha-IB-92 in suppressing the lutropin-releasing hormone (LHRH)-induced FSH secretion by using mouse pituitaries in vitro. […] The addition of 40 amino acids at the NH2 -terminus of alpha-IB-52 greatly enhance the inhibin activity.
# [2] = tested on: rabbit antiserum to alpha-IB-31; assay: RIA of alpha-inhibins using rabbit antiserum to ILP (displacement of labelled [Tyr4]-alpha-IB-31); assay type: binding; conditions: for potency in displacing labelled [Tyr4]-alpha-IB-31, relative to alpha-IB-31: antiserum raised against alpha-IB-31, text statement; for ED50 (RIA): rabbit antiserum to ILP; for ED50 (RIA) / Relative Potency (RIA): 95% confidence limits in parenthesis; for Relative Potency (RIA): relative to alpha-IB-31 = 1.00
# Procedure: Radioimmunoassay was performed with rabbit antiserum to alpha-IB-31. Amino acid analyses were performed in an automatic amino acid analyzer (Model 119C, Beckman) as described by Spackman, et al. (1958). The NH2 -terminal residue was determined by the dansyl-Edman procedure (Gray, 1967). For COOH-terminal residue analysis, carboxypeptidase Y digests were carried out in 1M pyridine acetate buffer (pH 5.5) for 4 hr at 37° C. with an enzyme-to-substrate ratio of 1:50. Trypsin digestions were performed with an enzyme-to-substrate ratio of 1:50 in 0.05M Tris/0.01 M Mg^2+, pH 8.5, at 37° C. for 4 hr.
# Alpha-IB-52 and alpha-IB-92 cross-react to an antiserum raised against alpha-IB-31. They displace labelled [Tyr^4 ]-alpha-IB-31 with 60% of the potency of alpha-IB-31.
# pituitary FSH secretion = conditions: in vitro and in vivo, Yamashiro et al. (1984); cited from earlier work
Substance,ED50 (FSH-suppressing activity) [1],times more active than alpha-IB-31 in suppressing FSH (follitropin) release [1] [times],Relative Potency (FSH-suppressing activity) [1],"potency in displacing labelled [Tyr4]-alpha-IB-31, relative to alpha-IB-31 [2] [%]",ED50 (RIA) [2],Relative Potency (RIA) [2],suppression of pituitary FSH secretion (pituitary FSH secretion),times more active than alpha-IB-31 in suppressing FSH (follitropin) release ([1]; listed as alpha-inhibin-92)
"HNKQEGRDHDKSKGHFHRVVIHHKGGKAHRGTQNPSQDQGNSPSGKGISSQY [alpha-IB-52, alpha-inhibin-52]",0.30 (0.18-0.52) pmol/ml,3.4,3.4,60,65 (45-92) fmoles,0.58 (0.31-1.1),–,–
"HNKQEGRDHDKSKGHFHRVVIHHKGGKAHRG [alpha-IB-31, alpha-inhibin-31, reference compound]",1.02 (0.34-2.9) pmol/ml,–,1.0,–,38 (29-50) fmoles,1.00,suppresses pituitary FSH secretion in vitro and in vivo,–
alpha-inhibin-92 [alpha-IB-92],0.025 (0.01-0.049) pmol/ml,40,40.5,60,63 (42-94) fmoles,0.60 (0.31-1.2),–,over 40 times
